The assay relates to Human Peripheral Blood Mononuclear Cells (PBMC). The assay is described as follows: T cell proliferation assay (PHA, 3H-thymidine). The class given is cell-based. As to conditions: 10 micrograms per ml, 3 days plus 12 hours 3H-thymidine.

Data on 1 substance can be found in patent publication US20100204107A1, “USE OF URODILATIN AS A THERAPEUTIC AGENT” (priority 2007, published 2010).

Consider Secretin, for which the “% of PHA induced control” value worked out at 100.5%.
